Experimental data published in patent publication US12383533B2 (Frost Biologic, Inc., priority 2014, dated 2025).

Tests used:
Format in all cases: cell-based
A2780 cells = test: Cell Viability Assay (ATPlite 1step), A2780; details: Homo sapiens, 72 hours; for percent inhibition of cell viability at 4 µM: A2780, 4 uM compound, read-out: Cell Viability % inhibition A2780 (4 uM Cpd); for percent inhibition of cell viability at 20 µM: A2780, 20 uM compound, read-out: Cell Viability % inhibition A2780 (20 uM Cpd)
Description: (§1) Cell Viability Assay Protocol
(§2) Cells were trypsinized, counted, and re-seeded into a 384-well tissue culture plate at 1000 cells per well in […] media. Cells were incubated at 37° C. in an atmosphere of 5% CO2 for 24 hours. Experimental compounds, initially dissolved in DMSO and diluted further in media were added to the wells and incubated for 72 hours. Cell viability was measured using the ATPlite 1step Luminescence Detection Assay system (Perkin Elmer) as described in the Assay kit instructions.
(§3) Cell Culture Lines and Media: (1) A2780 cells were cultured in RPMI media with 10% FBS and 1% antibiotics. Cells were typically split every 3-5 days at a 1:10 dilution; (2) PC3 cells were cultured in RPMI media with 10% FBS and 1% antibiotics. Cells were typically split every 3-5 days at a 1:4 dilution; (3) MCF-7 cells were grown in K-12F media with 10% FBS and 1% antibiotics. Cells were typically split every 3-5 days at a 1:10 dilution.

MCF-7 cells = test: Cell Viability Assay (ATPlite 1step), MCF-7; details: Homo sapiens, MCF7, 72 hours; for percent inhibition of cell viability at 4 µM: MCF-7, 4 uM compound, read-out: Cell Viability % inhibition MCF-7 (4 uM Cpd); for percent inhibition of cell viability at 20 µM: MCF-7, 20 uM compound, read-out: Cell Viability % inhibition MCF-7 (20 uM Cpd)
Description: as §1, §2, §3

PC3 cells = test: Cell Viability Assay (ATPlite 1step), PC3; details: Homo sapiens, PC-3, 72 hours; for percent inhibition of cell viability at 4 µM: PC3, 4 uM compound, read-out: Cell Viability % inhibition PC3 (4 uM Cpd); for percent inhibition of cell viability at 20 µM: PC3, 20 uM compound, read-out: Cell Viability % inhibition PC3 (20 uM Cpd)
Description: as §1, §2, §3

SMILES	percent inhibition of cell viability at 4 µM (A2780 cells)	percent inhibition of cell viability at 20 µM (A2780 cells)	percent inhibition of cell viability at 4 µM (MCF-7 cells)	percent inhibition of cell viability at 20 µM (MCF-7 cells)	percent inhibition of cell viability at 4 µM (PC3 cells)	percent inhibition of cell viability at 20 µM (PC3 cells)
Cc1ncc(C(=O)Nc2ccc(-c3cc(Cl)cc(N4CCN(C)CC4)c3)cn2)cn1 [Compound 47, N-{5-[3-chloro-5-(4-methylpiperazin-1-yl)phenyl]pyridin-2-yl}-2-methylpyrimidine-5-carboxamide]	88.7%	95.5%	40.6%	64.6%	63.2%	78.6%
Cc1ncc(C(=O)Nc2ccc(-c3csc(C)c3)cn2)cn1 [Compound 62, 2-methyl-N-[5-(5-methylthiophen-3-yl)pyridin-2-yl]pyrimidine-5-carboxamide]	85.2%	89.9%	59.4%	67%	54.8%	65.1%
O=C(Nc1ccc(-c2cccc(-c3ccccc3)c2)cn1)c1cncnc1 [Compound 40, N-[5-(biphenyl-3-yl)pyridin-2-yl]pyrimidine-5-carboxamide]	61%	72%			48.3%	52.5%
O=C(Nc1ccc(-c2cccc(NC3CC3)c2)cn1)c1cccnc1 [Compound 32, N-{5-[3-(cyclopropylamino)phenyl]pyridin-2-yl}pyridine-3-carboxamide]	71.9%	77%			57.3%	57.6%
O=C(Nc1ccc(C2CC2)cn1)c1cncnc1 [Compound 6, N-(5-cyclopropylpyridin-2-yl)pyrimidine-5-carboxamide]	75.5%	76.4%			27%	29.9%
Cc1ccc(C(=O)Nc2ccc(-c3cccc(OC4CC4)c3)cn2)cn1 [Compound 29, N-{5-[3-(cyclopropyloxy)phenyl]pyridin-2-yl}-6-methylpyridine-3-carboxamide]	74.4%	83.1%			60.5%	69.5%
O=C(Nc1ccc(-c2cccc(C3COC3)c2)cn1)c1cccnc1 [Compound 43, N-{5-[3-(oxetan-3-yl)phenyl]pyridin-2-yl}pyridine-3-carboxamide]	82.6%	86.7%			75.1%	84.5%
COc1ncc(C(=O)Nc2ccc(-c3cccc(C4CC4)c3)cn2)cn1 [Compound 59, N-[5-(3-cyclopropylphenyl)pyridin-2-yl]-2-methoxypyrimidine-5-carboxamide]	87.8%	90.4%			82.6%	88.5%
O=C(Nc1ccc(-c2ccc(Cl)cc2)cn1)c1cncnc1 [Compound 2, N-[5-(4-chlorophenyl)pyridin-2-yl]pyrimidine-5-carboxamide]	19.5%	65.2%			4.9%	17.4%
O=C(Nc1ccc(-c2cccc(OC3CC3)c2)cn1)c1cccnc1 [Compound 28, N-{5-[3-(cyclopropyloxy)phenyl]pyridin-2-yl}pyridine-3-carboxamide]	77%	74.2%			58.9%	65.6%
